For data set [1] the following is noted: cited from earlier work.
Data set [2] relates to hairless mouse skin (Laboskin).
A short description of data set [3]: Solubility / state of the active ingredient in the preparation (equimolar salt or enhancer). It is filed as physicochemical. The following applies: solubility of MZR in the equimolar salt of the basic compound a) with isostearic acid or linoleic acid.
For data set [4] the following is noted: partition coefficient between water and 1-octanol; cited from earlier work.
For data set [5] the following is noted: subcutaneous administration to rats; cited from earlier work.
The conditions of data set [6]: cited from earlier work. This is another data set of the same source.
Data set [7] in a line: Franz cell test of MZR preparations, artificial skin. The following applies: equimolar salt of choline with the acidic compound b) as enhancer.
The test system of a further data set is Yucatan Micropig Skin. The note with it: Non Patent Literature 1, at maximum; cited from earlier work.

Like-named read-outs stand apart in the source and are kept apart here. A value given as a limit tells only on which side of the number the result lay.

Take `CCCCCCCC/C=C\CCCCCCCC(=O)O` [Oleic acid]: the Water solubility entry in data set [1] (in words) is on record as “negligible”. Moreover, the “Transdermal penetrability of MZR (hairless mouse)” value in data set [2] is recorded as “Penetrated”.
Turning to `NCCc1c[nH]cn1` [Histamine], in data set [3], the MZR dissolution entry is recorded as “Dissolved”. For the same compound, the “Transdermal penetrability of MZR” value in data set [2] is “Penetrated”.
For `N=C(N)N` [Guanidine] the same measures were “Dissolved” and “Penetrated”.
For `C[N+](C)(C)CCOP(=O)([O-])OC[C@H](O)CO` [αGPC] the same measures were “Insoluble” and “Not penetrated”.
Take `CCn1cc[n+](C)c1.O=S(=O)([O-])C(F)(F)F`: in data set [3], the MZR dissolution result is “Insoluble”.
For `NC(=O)c1ncn([C@@H]2O[C@H](CO)[C@@H](O)[C@H]2O)c1O` [MZR, mizoribine], the Log P – broadly, the decadic logarithm of the partition coefficient of the neutral form, usually between octanol and water – in data set [4] is −1.9. The “no-observed-adverse-effect level (NOAEL)” value in data set [5] was 5 mg/kg. Also, the rate of penetration entry in data set [2] (hairless, mouse) is given as “approximately 30%”.
`CC(C)CCCCCCCCCCCCCCC(=O)O` [Isostearic acid]: in data set [6], the pKa – broadly, the pH at which an ionisable group is half protonated – is given as 4.90.
In the case of `O=C(O)/C=C\C(=O)O` [Maleic acid], the Water solubility in data set [1] (25° C.) was 78 g/100 mL (25° C.).
Regarding `O=C(O)c1ccccc1` [Benzoic acid], in data set [7], the “Transdermal penetrability of MZR (artificial skin)” value is listed as “Penetrated”.
Take `C[N+](C)(C)CCO` [choline]: in data set [4], the “Log P” value was “(LogP = −0.4”. Further, in data set [2], the “Transdermal penetrability of MZR” value is “Penetrated”.
Take `O=C(O)CO` [Glycolic acid]: the “Transdermal penetrability of MZR (artificial skin)” value in data set [7] is on record as “Penetrated”.
Take `CCCCC/C=C\C/C=C\CCCCCCCC(=O)O` [Linoleic acid]: the “Transdermal penetrability of MZR (hairless mouse)” value in data set [2] was “Penetrated”.
For `COP(=O)([O-])OC.Cn1cc[n+](C)c1`, the MZR dissolution result in data set [3] is on record as “Insoluble”.
With `CC(O)C(=O)O` (racemic) [DL-lactic acid], the “Transdermal penetrability of MZR (artificial skin)” value in data set [7] is on record as “Penetrated”.
Consider `CC(=O)O` [Acetic acid], for which, in data set [2], the “Transdermal penetrability of MZR (hairless mouse)” value is recorded as “Not penetrated”.
Regarding `Nc1ncnc2[nH]cnc12` [Adenine], the MZR dissolution entry in data set [3] was “Insoluble”.
As for `CCCCCCCCCCCCCCCC(=O)O` [Palmitic acid], in data set [6], the pKa is recorded as 4.75.
On to `O=C(O)CCC(=O)O` [Succinic acid], for which the “Log P” value in data set [4] is “(LogP = −0.6)”. In addition, the “Transdermal penetrability of MZR (hairless mouse)” value in data set [2] is “Not penetrated”.
For `O=C(O)CCCC(=O)O` [Glutaric acid], the results for the pKa in data set [6] and in data set [6] (second value) were 4.34 and 5.42, respectively. Moreover, the Water solubility in data set [1] (20° C.) is 430 g/L (20° C.). Moreover, in data set [7], the “Transdermal penetrability of MZR (artificial skin)” value was “Penetrated”.
Regarding `CCCCCCCCCCCCCC(=O)O` [Myristic acid], the pKa in data set [6] is 4.90. The Water solubility in data set [1] (at 18° C.) is given as less than 0.1 g/100 mL at. The “Transdermal penetrability of MZR (hairless mouse)” value in data set [2] is given as “Penetrated”.
Regarding `O=C(O)/C=C/C(=O)O` [Fumaric acid], in data set [1] (25° C.), the Water solubility is 0.63 g/100 mL-water.
As to `Nc1nc2c(ncn2COCCO)c(=O)[nH]1` [ACV, acyclovir], in the data set on Yucatan Micropig Skin, the “transdermal penetration amount of ACV for 24 hours” value was no more than 0.5 μg/cm^2.
For the compound `COc1cc(C(O)C(=O)O)ccc1O` (centres unmarked) [Vanillylmandelic acid], in data set [6], the pKa was 3.11. For the same compound, in data set [1] (H2O), the Water solubility entry is “H2O: ~50 mg/mL”. For the same compound, the “Transdermal penetrability of MZR (hairless mouse)” value in data set [2] was “Not penetrated”.
Consider `CCCCCCCCCCCCCCCCCC(=O)O` [Stearic acid], for which the pKa in data set [6] is recorded as 4.75.
With `CCCCCCCCCCCC(=O)O` [Dodecanoic acid], the pKa in data set [6] was 5.30. Besides, the Water solubility in data set [1] (20° C.) is given as 5.5 mg/100 g (20° C.). For the same compound, in data set [2], the “Transdermal penetrability of MZR (hairless mouse)” value was “Penetrated”.
Take `CC(O)CN(CC(C)O)CC(C)O` (centres unmarked) [TIPA]: the MZR dissolution result in data set [3] is given as “Insoluble”.
As to `Cc1cccc(C)c1NC(=O)CC12CCCN1CCC2` [pilsicainide], in data set [4], the “Log P” value was 2.7.
With `CC(O)CNCC(C)O` (centres unmarked) [DIPA], in data set [3], the MZR dissolution result was “Insoluble”. The “Transdermal penetrability of MZR” value in data set [2] was “Not penetrated”.
As to `CC[C@H](C)[C@H](N)C(=O)O` [L-Isoleucine], the “Log P” value in data set [4] is reported as “(LogP = −3.69)”.

(Values after US20170239173A1, “TRANSDERMAL ABSORPTION ENHANCER AND TRANSDERMAL ABSORPTION ENHANCEMENT AID” (ASAHI KASEI KABUSHIKI KAISHA, priority 2014, published 2017).)
